Results as given in patent publication US8426408B2, “Pyrimidine inhibitors of kinases” (AbbVie Inc., priority 2009, dated 2013).

Legend:
Assay type in all cases: biochemical
Aurora B = biological target: T1, Aurora B (Homo sapiens, UniProt Q96GD4); assay: Aurora B enzyme inhibition (time-resolved fluorescence, histone H3 peptide); conditions: 1 mM ATP
T1 construct: Active Aurora B enzyme (recombinant residues 1-344)
In short: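 Recombinant Aurora B (residues 1-344) with GST-INCENP phosphorylated biotinylated histone H3 (1-21) peptide at 1 mM ATP in HEPES pH 7.4 with MgCl2, orthovanadate and Triton X-100 for 1 h. After EDTA stop, the phosphopeptide was detected by TR-FRET (Eu-cryptate anti-phospho-H3 / SA-APC, 665/615 nm ratio). IC50 from an exponential fit.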

KDR = KDR (Homo sapiens, UniProt P35968); assay: KDR HTRF in vitro kinase assay; design: purified enzyme (His6-KDR 789-1354, MW 63 kD); His6 (N); conditions: 1 mM ATP; read-out: KDR enzyme inhibition data (Ki)
In short: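 His6-KDR 789-1354 (7 ng/well) with 0.5 μM biotinylated peptide substrate and 1 mM ATP in HEPES pH 7.1, MgCl2/MnCl2, 60 min at room temperature. EDTA-quenched, detected by streptavidin-XL-665 plus Eu-kryptate anti-phosphotyrosine HTRF after 3 h; IC50 from 620/665 nm ratio.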

Aurora A = biological target: T2, Aurora A (Homo sapiens, UniProt O14965); assay: Aurora A enzyme inhibition (time-resolved fluorescence, STK substrate-2); conditions: 1 mM ATP
T2 sequence (O14965 1-403): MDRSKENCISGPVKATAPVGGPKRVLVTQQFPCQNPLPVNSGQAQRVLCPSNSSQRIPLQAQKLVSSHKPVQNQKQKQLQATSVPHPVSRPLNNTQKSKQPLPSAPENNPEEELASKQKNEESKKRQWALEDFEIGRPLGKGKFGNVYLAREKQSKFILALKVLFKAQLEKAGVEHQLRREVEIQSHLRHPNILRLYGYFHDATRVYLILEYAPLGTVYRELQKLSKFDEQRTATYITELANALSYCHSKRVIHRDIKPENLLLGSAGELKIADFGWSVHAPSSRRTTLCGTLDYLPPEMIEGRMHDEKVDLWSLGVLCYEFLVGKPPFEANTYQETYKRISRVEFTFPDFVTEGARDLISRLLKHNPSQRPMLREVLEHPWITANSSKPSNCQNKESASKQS
In short: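 Active enzyme incubated 1 h with biotinylated STK substrate-2, 1 mM ATP and inhibitor in Hepes pH 7.4 with MgCl2, orthovanadate and Triton X-100. EDTA stop; phosphopeptide detected by Eu-cryptate anti-phospho-STK/SA-XL665 TR-FRET (665/615 nm ratio); IC50 by exponential fit.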

Chain of KDR (P35968 789-1354): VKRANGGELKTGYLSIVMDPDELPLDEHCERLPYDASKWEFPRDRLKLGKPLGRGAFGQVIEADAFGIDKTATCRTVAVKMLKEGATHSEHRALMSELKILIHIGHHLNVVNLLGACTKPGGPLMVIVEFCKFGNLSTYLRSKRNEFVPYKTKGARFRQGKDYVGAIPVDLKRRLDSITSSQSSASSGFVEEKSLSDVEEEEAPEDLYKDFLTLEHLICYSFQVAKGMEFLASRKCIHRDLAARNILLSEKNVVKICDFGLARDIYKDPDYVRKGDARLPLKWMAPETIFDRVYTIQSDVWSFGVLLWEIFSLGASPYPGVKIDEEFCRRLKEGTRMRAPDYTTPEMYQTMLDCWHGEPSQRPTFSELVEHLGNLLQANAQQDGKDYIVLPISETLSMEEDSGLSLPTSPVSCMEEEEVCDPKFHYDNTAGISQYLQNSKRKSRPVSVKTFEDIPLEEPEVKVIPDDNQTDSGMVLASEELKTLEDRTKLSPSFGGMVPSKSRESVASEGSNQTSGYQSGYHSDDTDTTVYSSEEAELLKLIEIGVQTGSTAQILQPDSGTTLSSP
T1 sequence (Q96GD4 whole entry, the tested form may be a part): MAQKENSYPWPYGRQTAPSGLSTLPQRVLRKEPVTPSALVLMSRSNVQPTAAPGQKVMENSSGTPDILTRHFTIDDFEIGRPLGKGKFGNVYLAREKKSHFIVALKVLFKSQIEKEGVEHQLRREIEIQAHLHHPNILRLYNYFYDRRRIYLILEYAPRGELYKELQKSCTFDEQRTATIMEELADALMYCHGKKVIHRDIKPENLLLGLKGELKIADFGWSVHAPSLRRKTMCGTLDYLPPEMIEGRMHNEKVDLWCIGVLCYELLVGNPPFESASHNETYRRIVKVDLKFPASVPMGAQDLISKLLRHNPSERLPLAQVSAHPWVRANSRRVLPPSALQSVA
T1 sequence (Q9NQS7 826-918 partner limits assumed): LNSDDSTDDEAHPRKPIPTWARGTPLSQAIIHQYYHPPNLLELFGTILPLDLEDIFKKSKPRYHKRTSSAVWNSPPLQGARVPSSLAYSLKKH

Compound	Ki (Aurora B)	Ki (KDR)	Ki (Aurora A)
CNC(=O)[C@@H]1[C@H](Nc2nc(Nc3cnn(C)c3)ncc2C(F)(F)F)[C@H]2C=C[C@@H]1C2.CNC(=O)[C@H]1[C@@H](Nc2nc(Nc3cnn(C)c3)ncc2C(F)(F)F)[C@@H]2C=C[C@H]1C2 (mixture of isomers) [Example 47, (1S,2S,3R,4R)—N-methyl-3-{[2-[(1-methyl-1H-pyrazol-4-yl)amino]-5-(trifluoromethyl)pyrimidin-4-yl]amino}bicyclo[2.2.1]hept-5-ene-2-carboxamide and (1R,2R,3S,4S)—N-methyl-3-{[2-[(1-methyl-1H-pyrazol-4-yl)amino]-5-(trifluoromethyl)pyrimidin-4-yl]amino}bicyclo[2.2.1]hept-5-ene-2-carboxamide]	< 100 nM	< 100 nM	< 100 nM
CCn1cc(Nc2ncc(C(F)(F)F)c(N[C@H]3[C@@H](C(N)=O)[C@@H]4C=C[C@H]3C4)n2)cn1 [Example 62, (1S,2S,3R,4R)-3-{[2-[(1-ethyl-1H-pyrazol-4-yl)amino]-5-(trifluoromethyl)pyrimidin-4-yl]amino}bicyclo[2.2.1]hept-5-ene-2-carboxamide]	< 100 nM	< 100 nM	< 100 nM
NC(=O)[C@@H]1[C@H](Nc2nc(Nc3cnn(CCN4CCOCC4)c3)ncc2Br)[C@H]2C=C[C@@H]1C2.NC(=O)[C@H]1[C@@H](Nc2nc(Nc3cnn(CCN4CCOCC4)c3)ncc2Br)[C@@H]2C=C[C@H]1C2 (mixture of isomers) [Example 39, (1S,2S,3R,4R)-3-[(5-bromo-2-{[1-(2-morpholin-4-ylethyl)-1H-pyrazol-4-yl]amino}pyrimidin-4-yl)amino]bicyclo[2.2.1]hept-5-ene-2-carboxamide and (1R,2R,3S,4S)-3-[(5-bromo-2-{[1-(2-morpholin-4-ylethyl)-1H-pyrazol-4-yl]amino}pyrimidin-4-yl)amino]bicyclo[2.2.1]hept-5-ene-2-carboxamide]	< 100 nM	< 100 nM	< 100 nM
CNC(=O)[C@@H]1[C@H](Nc2nc(Nc3cnn(C)c3)ncc2Br)[C@H]2C=C[C@@H]1C2.CNC(=O)[C@H]1[C@@H](Nc2nc(Nc3cnn(C)c3)ncc2Br)[C@@H]2C=C[C@H]1C2 (mixture of isomers) [Example 48, (1S,2S,3R,4R)-3-({5-bromo-2-[(1-methyl-1H-pyrazol-4-yl)amino]pyrimidin-4-yl}amino)-N-methylbicyclo[2.2.1]hept-5-ene-2-carboxamide and (1R,2R,3S,4S)-3-({5-bromo-2-[(1-methyl-1H-pyrazol-4-yl)amino]pyrimidin-4-yl}amino)-N-methylbicyclo[2.2.1]hept-5-ene-2-carboxamide]	< 100 nM	< 100 nM	< 100 nM
CCn1cc(Nc2ncc(Cl)c(N[C@@H]3[C@H](C(=O)NC)[C@H]4C=C[C@@H]3C4)n2)cn1.CCn1cc(Nc2ncc(Cl)c(N[C@H]3[C@@H](C(=O)NC)[C@@H]4C=C[C@H]3C4)n2)cn1 (mixture of isomers) [Example 51, (1S,2S,3R,4R)-3-({5-chloro-2-[(1-ethyl-1H-pyrazol-4-yl)amino]pyrimidin-4-yl}amino)-N-methylbicyclo[2.2.1]hept-5-ene-2-carboxamide and (1R,2R,3S,4S)-3-({5-chloro-2-[(1-ethyl-1H-pyrazol-4-yl)amino]pyrimidin-4-yl}amino)-N-methylbicyclo[2.2.1]hept-5-ene-2-carboxamide]	< 100 nM	< 100 nM	< 100 nM
NC(=O)[C@@H]1[C@H](Nc2nc(Nc3cnn(C4CCNCC4)c3)ncc2Cl)[C@H]2C=C[C@@H]1C2 [Example 82, (1S,2S,3R,4R)-3-({5-chloro-2-[(1-piperidin-4-yl-1H-pyrazol-4-yl)amino]pyrimidin-4-yl}amino)bicyclo[2.2.1]hept-5-ene-2-carboxamide]	< 100 nM	< 100 nM	< 100 nM
NC(=O)Cn1cc(Nc2ncc(Cl)c(N[C@H]3[C@@H](C(N)=O)[C@@H]4C=C[C@H]3C4)n2)cn1 [Example 74, (1S,2S,3R,4R)-3-[(2-{[1-(2-amino-2-oxoethyl)-1H-pyrazol-4-yl]amino}-5-chloropyrimidin-4-yl)amino]bicyclo[2.2.1]hept-5-ene-2-carboxamide]	< 100 nM	< 100 nM	< 100 nM
Cn1cc(Nc2ncc(Cl)c(N[C@@H]3[C@H]4CC[C@H](C4)[C@@H]3C(N)=O)n2)cn1.Cn1cc(Nc2ncc(Cl)c(N[C@H]3[C@@H]4CC[C@@H](C4)[C@H]3C(N)=O)n2)cn1 (mixture of isomers) [Example 56, (1R,2S,3R,4S)-3-({5-chloro-2-[(1-methyl-1H-pyrazol-4-yl)amino]pyrimidin-4-yl}amino)bicyclo[2.2.1]heptane-2-carboxamide and (1S,2R,3S,4R)-3-({5-chloro-2-[(1-methyl-1H-pyrazol-4-yl)amino]pyrimidin-4-yl}amino)bicyclo[2.2.1]heptane-2-carboxamide]	< 100 nM	< 100 nM	< 100 nM
C[C@@H](O)Cn1cc(Nc2ncc(F)c(N[C@@H]3[C@H]4CC[C@H](C4)[C@@H]3C(N)=O)n2)cn1.C[C@@H](O)Cn1cc(Nc2ncc(F)c(N[C@H]3[C@@H]4CC[C@@H](C4)[C@H]3C(N)=O)n2)cn1 (mixture of isomers) [Example 16, (1S,2R,3S,4R)-3-{[5-fluoro-2-({1-[(2R)-2-hydroxypropyl]-1H-pyrazol-4-yl}amino)pyrimidin-4-yl]amino}bicyclo[2.2.1]heptane-2-carboxamide and (1R,2S,3R,4S)-3-{[5-fluoro-2-({1-[(2R)-2-hydroxypropyl]-1H-pyrazol-4-yl}amino)pyrimidin-4-yl]amino}bicyclo[2.2.1]heptane-2-carboxamide]	100 to 1000 nM	1000 to 5000 nM	100 to 1000 nM
CCn1cc(Nc2ncc(C(F)(F)F)c(N[C@@H]3[C@H](C(=O)NCCO)[C@H]4C=C[C@@H]3C4)n2)cn1.CCn1cc(Nc2ncc(C(F)(F)F)c(N[C@H]3[C@@H](C(=O)NCCO)[C@@H]4C=C[C@H]3C4)n2)cn1 (mixture of isomers) [Example 68, (1S,2S,3R,4R)-3-{[2-[(1-ethyl-1H-pyrazol-4-yl)amino]-5-(trifluoromethyl)pyrimidin-4-yl]amino}-N-(2-hydroxyethyl)bicyclo[2.2.1]hept-5-ene-2-carboxamide and (1R,2R,3S,4S)-3-{[2-[(1-ethyl-1H-pyrazol-4-yl)amino]-5-(trifluoromethyl)pyrimidin-4-yl]amino}-N-(2-hydroxyethyl)bicyclo[2.2.1]hept-5-ene-2-carboxamide]	< 100 nM	< 100 nM	< 100 nM
